melting point [°C] | Structure (SMILES)
201 | CCCC1=C(C#N)C(c2cccnc2)c2c[nH]nc2N1 (stereo not drawn) [Example 327, 5-Cyano-4,7-dihydro-6-propyl-4-(pyridin-3-yl)-2H-pyrazolo[3,4-b]pyridine]
115 | COC(CC1=C(C#N)C(c2cccc3nonc23)c2c[nH]nc2N1)OC (stereo not drawn) [Example 329, 4-(2,1,3-Benzoxadiazol-4-yl)-5-cyano-6-(2,2-dimethoxyethyl)-4,7-dihydro-2H-pyrazolo[3,4-b]pyridine]
180 | CCCC1=C(C#N)C(c2ccccc2Cl)c2c(n[nH]c2CC(OC)OC)N1 (stereo not drawn) [Example 330, 4-(2-Chlorophenyl)-5-cyano-4,7-dihydro-3-(2,2-dimethoxyethyl)-6-propyl-2H-pyrazolo[3,4-b]pyridine]
239 | CCCC1=C(C#N)C(c2cccc3nocc23)c2c[nH]nc2N1 (stereo not drawn) [Example 331, 4-(2,1-Benzoisoxazol-4-yl)-5-cyano-4,7-dihydro-6-propyl-2H-pyrazolo[3,4-b]pyridine]
245 | CC(C)C1=C(C#N)C(c2cccc3nocc23)c2c[nH]nc2N1 (stereo not drawn) [Example 332, 4-(2,1-Benzoisoxazol-4-yl)-5-cyano-4,7-dihydro-6-isopropyl-2H-pyrazolo[3,4-b]pyridine]
248 | N#CC1=C(C2CC2)Nc2n[nH]cc2C1c1cccc2nocc12 (stereo not drawn) [Example 333, 4-(2,1-Benzoisoxazol-4-yl)-5-cyano-6-cyclopropyl-4,7-dihydro-2H-pyrazolo[3,4-b]pyridine]
238 | N#CC1=C(c2c[nH]c3ccccc23)Nc2n[nH]cc2C1c1cccc2nonc12 (stereo not drawn) [Example 335, 4-(2,1,3-Benzoxadiazol-4-yl)-5-cyano-4,7-dihydro-6-(indol-3-yl)-2H-pyrazolo[3,4-b]pyridine]
212 | CCCC1=C(C#N)C(c2ccccc2Cl)c2c(n[nH]c2C(OC)OC)N1 (stereo not drawn) [Example 336, 4-(2-Chlorophenyl)-5-cyano-4,7-dihydro-3-dimethoxymethyl-6-propyl-2H-pyrazolo[3,4-b]pyridine]
224 | CCCC1=C(C#N)C(c2ccncc2)c2c[nH]nc2N1 (stereo not drawn) [Example 337, 5-Cyano-4,7-dihydro-6-propyl-4-(pyridin-4-yl)-2H-pyrazolo[3,4-b]pyridine]
250 | CCCC1=C(C#N)C(c2cccc(C)c2[N+](=O)[O-])c2c[nH]nc2N1 (stereo not drawn) [Example 338, 5-Cyano-4,7-dihydro-4-(3-methyl-2-nitrophenyl)-6-propyl-2H-pyrazolo[3,4-b]pyridine]
261 | Cc1cccc(C2C(C#N)=C(C(C)C)Nc3n[nH]cc32)c1[N+](=O)[O-] (stereo not drawn) [Example 339, 5-Cyano-4,7-dihydro-4-(3-methyl-2-nitrophenyl)-6-isopropyl-2H-pyrazolo[3,4-b]pyridine]
265 | Cc1cccc(C2C(C#N)=C(C3CC3)Nc3n[nH]cc32)c1[N+](=O)[O-] (stereo not drawn) [Example 340, 5-Cyano-6-cyclopropyl-4,7-dihydro-4-(3-methyl-2-nitrophenyl)-2H-pyrazolo[3,4-b]pyridine]
170 to 171 | CCCC1=C(C#N)C(c2ccccc2Cl)c2c[nH]nc2N1C (stereo not drawn) [Example 346, 4-(2-Chlorophenyl)-5-cyano-7-methyl-6-propyl-4,7-dihydro-2H-pyrazolo[3,4-b]pyridine]

Structure (SMILES) | melting point [°C]
CCCC1=C(C#N)C(c2ccccc2Cl)c2c(OC(=O)OC(C)(C)C)n[nH]c2N1 (stereo not drawn) [Example 328, 3-t-Butoxycarbonyloxy-4-(2-chlorophenyl)-5-cyano-4,7-dihydro-6-propyl-1 H-pyrazolo[3,4-b]pyridine] | 182
CC(C)(C)OC(=O)n1cc(C2=C(C#N)C(c3cccc4nonc34)c3c[nH]nc3N2)c2ccccc21 (stereo not drawn) [Example 334, 4-(2,1,3-Benzoxadiazol-4-yl)-5-cyano-6-(1-t-butoxycarbonylindol-3-yl)-4,7-dihydro-2H-pyrazolo[3,4-b]pyridine] | 202

— patent US6977262B2, “Dihydropyrazolopyridine compounds and pharmaceutical use thereof” (Mitsubishi Pharma Corporation, priority 2001, dated 2005)
